According to article PMC2139966 (The Journal of Cell Biology, 1997):

Target: band 3 (anion exchanger AE1)
Experiment: […]SO4/SO4 exchange in band […] proteoliposomes
Format: biochemical, Oryctolagus cuniculus

Ki: 2 ± 1 µM
Structure (SMILES): O=[N+]([O-])c1ccc(/C=C/c2ccc([N+](=O)[O-])cc2S(=O)(=O)O)c(S(=O)(=O)O)c1 [DNDS, 4,4′-dinitorsostilbene-2,2′-disulfonic acid]
